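Five compound concentrations were applied to cells in 96-well plates for 48 hours; endpoints were derived by simple linear interpolation of the resulting dose-response curve. Abbreviation: GI50, concentration required for 50% inhibition of growth.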 Active and inactive are the calls of the source. Rule as the data show it: active = GI50 up to about 1.1 µM and inactive = higher.
Tests used:
Assay in all cases: DTP human tumour cell line panel, 48 h
[1] = test system: ACHN
[2] = test system: M14
[3] = test system: HCT-116
[4] = test system: MDA-MB-435
[5] = test system: NCI/ADR-RES
[6] = test system: DU-145
[7] = test system: TK-10
[8] = test system: HL-60
[9] = test system: HCT-15
[10] = test system: U-251
[11] = test system: SK-MEL-5
[12] = test system: SW-620
[13] = test system: K562
[14] = test system: HOP-62
[15] = test system: SN12C
[16] = test system: COLO 205
[17] = test system: HT-29
[18] = test system: RXF 393
[19] = test system: NCI-H522
[20] = test system: BT-549
[21] = test system: UO-31
[22] = test system: NCI-H23
[23] = test system: SF-268
[24] = test system: OVCAR-8
[25] = test system: LOX IMVI
[26] = test system: CAKI-1
[27] = test system: EKVX
[28] = test system: SK-MEL-28
[29] = test system: SK-OV-3
[30] = test system: PC-3
[31] = test system: OVCAR-4
[32] = test system: UACC-62
[33] = test system: RPMI-8226
[34] = test system: CCRF-CEM
[35] = test system: MOLT-4
[36] = test system: SF-539
[37] = test system: A498
[38] = test system: A549
[39] = test system: IGROV-1
[40] = test system: MDA-N
[41] = test system: Malme-3M
[42] = test system: 786-0
[43] = test system: SF-295
[44] = test system: SNB-19
[45] = test system: OVCAR-5
[46] = test system: T47D
[47] = test system: HOP-92
[48] = test system: OVCAR-3
[49] = test system: SR
[50] = test system: SK-MEL-2
[51] = test system: MDA-MB-231
[52] = test system: NCI-H460
[53] = test system: Hs-578T
[54] = test system: NCI-H226
[55] = test system: UACC-257
[56] = test system: KM12
[57] = test system: HCC 2998
[58] = test system: MCF7
[59] = test system: SNB-75

`O=C1CCCCC(=O)Nc2ccccc2N1` was tested, and the GI50 [1] was > 100 µM (inactive), the GI50 [2] was > 100 µM (inactive) and the GI50 [3] was > 100 µM (inactive). For the same compound, the GI50 [4] was > 100 µM (inactive), the GI50 [5] was > 100 µM (inactive) and the GI50 [6] was > 100 µM (inactive). For the same compound, the GI50 [7] was > 100 µM (inactive), the GI50 [8] was > 100 µM (inactive) and the GI50 [9] was greater than 100 µM. For the same compound, the GI50 [10] was > 100 µM (inactive), the GI50 [11] was > 100 µM (inactive) and the GI50 [12] was > 100 µM (inactive). For the same compound, the GI50 [13] was > 100 µM (inactive), the GI50 [14] was > 100 µM (inactive) and the GI50 [15] was > 100 µM (inactive). For the same compound, the GI50 [16] was > 100 µM (inactive), the GI50 [17] was > 100 µM (inactive) and the GI50 [18] was > 100 µM (inactive). The GI50 [19] was > 100 µM (inactive), the GI50 [20] was > 100 µM (inactive) and the GI50 [21] was > 100 µM (inactive). The GI50 [22] was > 100 µM (inactive), the GI50 [23] was > 100 µM (inactive) and the GI50 [24] was > 100 µM (inactive). The GI50 [25] was > 100 µM (inactive), the GI50 [26] was > 100 µM (inactive) and the GI50 [27] was > 100 µM (inactive). The GI50 [28] was > 100 µM (inactive), the GI50 [29] was > 100 µM (inactive) and the GI50 [30] was > 100 µM (inactive). For the same compound, the GI50 [31] was > 100 µM (inactive), the GI50 [32] was > 100 µM (inactive) and the GI50 [33] was > 100 µM (inactive). The GI50 [34] was > 100 µM (inactive), the GI50 [35] was > 100 µM (inactive) and the GI50 [36] was > 100 µM (inactive). For the same compound, the GI50 [37] was > 100 µM (inactive), the GI50 [38] was > 100 µM (inactive) and the GI50 [39] was > 100 µM (inactive). The GI50 [40] was > 100 µM (inactive), the GI50 [41] was > 100 µM (inactive) and the GI50 [42] was > 100 µM (inactive). For the same compound, the GI50 [43] was > 100 µM (inactive), the GI50 [44] was > 100 µM (inactive) and the GI50 [45] was > 100 µM (inactive). For the same compound, the GI50 [46] was > 100 µM (inactive), the GI50 [47] was > 100 µM (inactive) and the GI50 [48] was > 100 µM (inactive). For the same compound, the GI50 [49] was 39.4 µM (inactive), the GI50 [50] was > 100 µM (inactive) and the GI50 [51] was > 100 µM (inactive). The GI50 [52] was > 100 µM (inactive), the GI50 [53] was > 100 µM (inactive) and the GI50 [54] was > 100 µM (inactive). For the same compound, the GI50 [55] was > 100 µM (inactive) and the GI50 [56] was > 100 µM (inactive).

For `Cc1ccc(Nc2nc(NNC(=O)Cc3ccccc3)nc(NNC(=O)c3ccncc3)n2)cc1`, the GI50 [2] was > 10 µM (inactive), the GI50 [5] was > 10 µM (inactive) and the GI50 [6] was > 10 µM (inactive). The GI50 [7] was > 10 µM (inactive), the GI50 [8] was > 10 µM (inactive) and the GI50 [9] was greater than 10 µM. For the same compound, the GI50 [10] was > 10 µM (inactive), the GI50 [11] was > 10 µM (inactive) and the GI50 [12] was > 10 µM (inactive). For the same compound, the GI50 [13] was > 10 µM (inactive), the GI50 [57] was > 10 µM (inactive) and the GI50 [14] was > 10 µM (inactive). The GI50 [15] was > 10 µM (inactive), the GI50 [16] was > 10 µM (inactive) and the GI50 [17] was > 10 µM (inactive). The GI50 [20] was > 10 µM (inactive), the GI50 [21] was 8.49 µM (inactive) and the GI50 [22] was > 10 µM (inactive). For the same compound, the GI50 [58] was > 10 µM (inactive), the GI50 [23] was > 10 µM (inactive) and the GI50 [24] was > 10 µM (inactive). For the same compound, the GI50 [25] was > 10 µM (inactive), the GI50 [26] was > 10 µM (inactive) and the GI50 [27] was > 10 µM (inactive). The GI50 [28] was > 10 µM (inactive), the GI50 [29] was > 10 µM (inactive) and the GI50 [31] was > 10 µM (inactive). The GI50 [32] was 9.82 µM (inactive), the GI50 [33] was > 10 µM (inactive) and the GI50 [34] was > 10 µM (inactive). The GI50 [59] was > 10 µM (inactive), the GI50 [35] was > 10 µM (inactive) and the GI50 [36] was > 10 µM (inactive). The GI50 [37] was > 10 µM (inactive), the GI50 [38] was > 10 µM (inactive) and the GI50 [39] was > 10 µM (inactive). The GI50 [40] was > 10 µM (inactive), the GI50 [41] was > 10 µM (inactive) and the GI50 [42] was > 10 µM (inactive). For the same compound, the GI50 [46] was > 10 µM (inactive), the GI50 [47] was > 10 µM (inactive) and the GI50 [49] was > 10 µM (inactive). For the same compound, the GI50 [51] was > 10 µM (inactive), the GI50 [52] was > 10 µM (inactive) and the GI50 [53] was > 10 µM (inactive). The GI50 [55] was > 10 µM (inactive) and the GI50 [56] was > 10 µM (inactive).

`O=C1CC2(CCNCC2)C(=O)N1N1CCCCC1` was tested, and the GI50 [1] was > 100 µM (inactive), the GI50 [2] was > 100 µM (inactive) and the GI50 [3] was > 100 µM (inactive). The GI50 [5] was > 100 µM (inactive), the GI50 [6] was > 100 µM (inactive) and the GI50 [7] was > 100 µM (inactive). The GI50 [8] was > 100 µM (inactive), the GI50 [9] was greater than 100 µM and the GI50 [10] was > 100 µM (inactive). For the same compound, the GI50 [11] was > 100 µM (inactive), the GI50 [12] was > 100 µM (inactive) and the GI50 [13] was > 100 µM (inactive). The GI50 [57] was > 100 µM (inactive), the GI50 [14] was > 100 µM (inactive) and the GI50 [15] was > 100 µM (inactive). The GI50 [16] was > 100 µM (inactive), the GI50 [17] was > 100 µM (inactive) and the GI50 [18] was > 100 µM (inactive). The GI50 [19] was > 100 µM (inactive), the GI50 [20] was > 100 µM (inactive) and the GI50 [21] was > 100 µM (inactive). The GI50 [22] was > 100 µM (inactive), the GI50 [58] was > 100 µM (inactive) and the GI50 [23] was > 100 µM (inactive). For the same compound, the GI50 [24] was > 100 µM (inactive), the GI50 [25] was > 100 µM (inactive) and the GI50 [26] was > 100 µM (inactive). The GI50 [27] was > 100 µM (inactive), the GI50 [28] was > 100 µM (inactive) and the GI50 [29] was > 100 µM (inactive). The GI50 [30] was > 100 µM (inactive), the GI50 [31] was > 100 µM (inactive) and the GI50 [32] was > 100 µM (inactive). The GI50 [33] was > 100 µM (inactive), the GI50 [34] was > 100 µM (inactive) and the GI50 [59] was > 100 µM (inactive). The GI50 [35] was > 100 µM (inactive), the GI50 [36] was > 100 µM (inactive) and the GI50 [37] was > 100 µM (inactive). The GI50 [38] was > 100 µM (inactive), the GI50 [39] was > 100 µM (inactive) and the GI50 [40] was > 100 µM (inactive). For the same compound, the GI50 [41] was > 100 µM (inactive), the GI50 [42] was > 100 µM (inactive) and the GI50 [43] was > 100 µM (inactive). The GI50 [44] was > 100 µM (inactive), the GI50 [45] was > 100 µM (inactive) and the GI50 [46] was > 100 µM (inactive). The GI50 [47] was > 100 µM (inactive), the GI50 [48] was > 100 µM (inactive) and the GI50 [49] was > 100 µM (inactive). The GI50 [50] was > 100 µM (inactive), the GI50 [51] was > 100 µM (inactive) and the GI50 [52] was > 100 µM (inactive). The GI50 [53] was > 100 µM (inactive), the GI50 [54] was > 100 µM (inactive) and the GI50 [55] was > 100 µM (inactive). For the same compound, the GI50 [56] was > 100 µM (inactive).
